For 21 compounds, IC50 results are on record in patent US11578087B2, “Oxaborole esters and uses thereof” (priority 2016, dated 2023).

Assay [1] relates to T. cruzi amastigote (Td Tomato-modified) in Vero cells. Nature of the assay: In vitro IC50 measurement of T. cruzi amastigote killing using Td Tomato-modified T. cruzi. The following applies: Trypanosoma cruzi, 72 h, fluorescence, read-out: IC50: I Org. amastigote Growth T. cruzi 3 d. The class given is cell-based. A digest of the protocol: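 IC50/IC90 came from nonlinear regression of Day 3 minus Day 0 fluorescence (544/612 nm), correcting for input parasites. Final compound concentrations spanned 5 nM–5 uM on Td Tomato T. cruzi-infected Vero cells, 72 h at 37 °C.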

Assay [2] deals with IL3000 T. congolense (drug sensitive) strain. Nature of the assay: In vitro Alamar Blue 72 h drug sensitivity assay for T. congolense. The class given is cell-based, Trypanosoma congolense. Conditions: Trypanosoma congolense, 72 h, bloodstream form, 69 h + 3 h Resazurin, 34° C., read-out: IC50: I Org. Growth T. congolense 3 d. In short, it runs like this:
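IC50 values derive from 11-point curves averaged over at least three independent runs, with fluorescence read at 536 nm excitation and 588 nm emission. Resazurin was added for a final 3 h after 69 h compound exposure of bloodstream forms (HMI medium, 20% bovine serum, 34° C, 5% CO2).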
A general note: The colour change of resazurin is a common sign of viable cells or microbes.

As usually defined, the IC50 is the concentration that gives 50% inhibition. Take `Cc1c(C(=O)N[C@H](C(=O)OCc2ncc(F)cn2)C(C)C)ccc2c1B(O)OC2` [Example 6-202, (5-fluoropyrimidin-2-yl)methyl (1-hydroxy-7-methyl-1,3-dihydrobenzo[c][1,2]oxaborole-6-carbonyl)-L-valinate]: the IC50 in assay [1] is at most 20 nM; in assay [2], below 0.5 nM.

For `Cc1c(C(=O)N[C@@H](C(=O)OCc2ccc(F)cc2)C(C)C)ccc2c1B(O)OC2` [Example 6-087, 4-Fluorobenzyl (1-hydroxy-7-methyl-1,3-dihydrobenzo[c][1,2]oxaborole-6-carbonyl)-D-valinate], the IC50 was at least 1000 nM in assay [1] and 10 to 5000 nM in assay [2].

`Cc1c(C(=O)N[C@H](C(=O)OCCN2CC3(COC3)C2)C(C)C)ccc2c1B(O)OC2` [Example 6-218, 2-(2-oxa-6-azaspiro[3.3]heptan-6-yl)ethyl (1-hydroxy-7-methyl-1,3-dihydrobenzo[c][1,2]oxaborole-6-carbonyl)-L-valinate]: the IC50 is at least 1000 nM in assay [1] and 10 to 5000 nM in assay [2].

On to `Cc1c(C(=O)N[C@H](C(=O)OCc2cncc(N3CCN(C)CC3)n2)C(C)C)ccc2c1B(O)OC2` [Example 6-204, (6-(4-methylpiperazin-1-yl)pyrazin-2-yl)methyl (1-hydroxy-7-methyl-1,3-dihydrobenzo[c][1,2]oxaborole-6-carbonyl)-L-valinate], for which the results for the IC50 in assay [1] and in assay [2] were at most 20 nM and below 0.5 nM, respectively.

As for `Cc1c(C(=O)N[C@H](C(=O)OCc2cncc(N3CCOCC3)n2)C(C)C)ccc2c1B(O)OC2` [Example 6-193, (6-morpholinopyrazin-2-yl)methyl (1-hydroxy-7-methyl-1,3-dihydrobenzo[c][1,2]oxaborole-6-carbonyl)-L-valinate], the values for the IC50 in assay [1] and in assay [2] were at most 20 nM and below 0.5 nM, respectively.

`Cc1c(C(=O)N[C@H](C(=O)OCc2cccc(CN(C)C)c2)C(C)C)ccc2c1B(O)OC2` [Example 6-081, 3-((Dimethylamino)methyl)benzyl (1-hydroxy-7-methyl-1,3-dihydrobenzo[c][1,2]oxaborole-6-carbonyl)-L-valinate]: the IC50 in assay [1] is 21 to 999 nM; in assay [2], below 0.5 nM.

`Cc1c(C(=O)N[C@H](C(=O)OCc2cc(F)cc(F)c2)C(C)(C)O)ccc2c1B(O)OC2` [Example 6-099, 3,5-Difluorobenzyl (S)-3-hydroxy-2-(1-hydroxy-7-methyl-1,3-dihydrobenzo[c][1,2]oxaborole-6-carboxamido)-3-methylbutanoate]: the half-inhibitory concentration (IC50) in assay [1] is 21 to 999 nM; in assay [2], below 0.5 nM.

Regarding `Cc1c(C(=O)N[C@H](C(=O)OCC2CCCO2)C(C)C)ccc2c1B(O)OC2` (stereo partly drawn) [Example 6-210, (tetrahydrofuran-2-yl)methyl (1-hydroxy-7-methyl-1,3-dihydrobenzo[c][1,2]oxaborole-6-carbonyl)-L-valinate], the IC50 in assay [1] was at most 20 nM; in assay [2], below 0.5 nM.

As for `Cc1c(C(=O)N[C@H](C(=O)OCc2ccc(S(C)(=O)=O)cc2)C(C)C)ccc2c1B(O)OC2` [Example 6-056, 4-(Methylsulfonyl)benzyl (1-hydroxy-7-methyl-1,3-dihydrobenzo[c][1,2]oxaborole-6-carbonyl)-L-valinate], the IC50 fell in the range of 21 to 999 nM in assay [1] and 0.51 to 9.99 nM in assay [2].

For `COC(=O)[C@@H](NC(=O)c1ccc2c(c1C)B(O)OC2)C(C)C` [Example 6-069, Methyl (1-hydroxy-7-methyl-1,3-dihydrobenzo[c][1,2]oxaborole-6-carbonyl)-L-valinate], the concentration for half-maximal inhibition (IC50) in assay [1] was 21 to 999 nM; in assay [2], 0.51 to 9.99 nM.

With `Cc1c(C(=O)N[C@H](C(=O)OC2CCOCC2)C(C)C)ccc2c1B(O)OC2` [Example 6-134, Tetrahydro-2H-pyran-4-yl (1-hydroxy-7-methyl-1,3-dihydrobenzo[c][1,2]oxaborole-6-carbonyl)-L-valinate], the IC50 in assay [1] is at most 20 nM; in assay [2], below 0.5 nM.

With `Cc1c(C(=O)N[C@H](C(=O)OCc2cccc(S(C)(=O)=O)c2)C(C)C)ccc2c1B(O)OC2` [Example 6-080, 3-(Methylsulfonyl)benzyl (1-hydroxy-7-methyl-1,3-dihydrobenzo[c][1,2]oxaborole-6-carbonyl)-L-valinate], the IC50 in assay [1] is 21 to 999 nM; in assay [2], 0.51 to 9.99 nM.

Turning to `Cc1c(C(=O)N[C@H](C(=O)OCc2cccc(C#N)n2)C(C)C)ccc2c1B(O)OC2` [Example 6-189, (6-cyanopyridin-2-yl)methyl (1-hydroxy-7-methyl-1,3-dihydrobenzo [c][1,2]oxaborole-6-carbonyl)-L-valinate], the IC50 in assay [1] was at most 20 nM; in assay [2], below 0.5 nM.

Regarding `CCc1c(C(=O)N[C@H](C(=O)OCc2ccc(S(C)(=O)=O)cc2)C(C)C)ccc2c1B(O)OC2` [Example 6-076, 4-(Methylsulfonyl)benzyl (7-ethyl-1-hydroxy-1,3-dihydrobenzo[c][1,2]oxaborole-6-carbonyl)-L-valinate], the IC50 lay within 21 to 999 nM in assay [1] and 0.51 to 9.99 nM in assay [2].

On to `Cc1c(C(=O)N[C@H](C(=O)OCc2ccc(OCCCN3CCCC3)cc2)C(C)C)ccc2c1B(O)OC2` [Example 6-249, 4-(3-(Pyrrolidin-1-yl)propoxy)benzyl(1-hydroxy-7-methyl-1,3-dihydrobenzo[c][1,2]oxaborole-6-carbonyl)-L-valinate], for which the IC50 in assay [1] was 21 to 999 nM; in assay [2], 0.51 to 9.99 nM.

Turning to `Cc1c(C(=O)N[C@H](C(=O)OC2CCCCC2)C(C)C)ccc2c1B(O)OC2` [Example 6-133, Cyclohexyl (1-hydroxy-7-methyl-1,3-dihydrobenzo[c][1,2]oxaborole-6-carbonyl)-L-valinate], the concentration for half-maximal inhibition (IC50) was at most 20 nM in assay [1] and below 0.5 nM in assay [2].

Consider `Cc1c(C(=O)N[C@H](C(=O)OCc2cc(C(F)(F)F)ncn2)C(C)C)ccc2c1B(O)OC2` [Example 6-161, (6-(trifluoromethyl)pyrimidin-4-yl)methyl (1-hydroxy-7-methyl-1,3-dihydrobenzo[c][1,2]oxaborole-6-carbonyl)-L-valinate], for which the half-inhibitory concentration (IC50) in assay [1] was at most 20 nM; in assay [2], below 0.5 nM.

On to `CCS(=O)(=O)c1ccc(COC(=O)[C@@H](NC(=O)c2ccc3c(c2C)B(O)OC3)C(C)C)cc1` [Example 6-093, 4-(Ethylsulfonyl)benzyl (1-hydroxy-7-methyl-1,3-dihydrobenzo[c][1,2]oxaborole-6-carbonyl)-L-valinate], for which the half-maximal inhibitory concentration (IC50) in assay [1] lay in the range of 21 to 999 nM; in assay [2] it was 0.51 to 9.99 nM.

`Cc1c(C(=O)N[C@H](C(=O)OCCN2CCOCC2)C(C)C)ccc2c1B(O)OC2` [Example 6-170, 2-Morpholinoethyl (1-hydroxy-7-methyl-1,3-dihydrobenzo[c][1,2]oxaborole-6-carbonyl)-L-valinate]: the figures for the IC50 in assay [1] and in assay [2] were 21 to 999 nM and 0.51 to 9.99 nM, respectively.

For the compound `Cc1c(C(=O)N[C@H](C(=O)OC2CCC(F)(F)CC2)C(C)C)ccc2c1B(O)OC2` [Example 6-155, 4,4-Difluorocyclohexyl (1-hydroxy-7-methyl-1,3-dihydrobenzo[c][1,2]oxaborole-6-carbonyl)-L-valinate], the concentration for half-maximal inhibition (IC50) in assay [1] is at most 20 nM; in assay [2], below 0.5 nM.

Regarding `Cc1c(C(=O)N[C@H](C(=O)OCc2ccc(OC(F)(F)F)cc2)C(C)C)ccc2c1B(O)OC2` [Example 6-054, 4-Trifluoromethoxybenzyl (1-hydroxy-7-methyl-1,3-dihydrobenzo[c][1,2]oxaborole-6-carbonyl)-L-valinate], the IC50 in assay [1] is at most 20 nM; in assay [2], below 0.5 nM.
